We go through two compounds from ChEMBL document CHEMBL1201862, “PubChem BioAssay data set” (2004).

What all share (assay type): functional
The target of assay [1] is Receptor-type tyrosine-protein kinase FLT3 (Homo sapiens, UniProt P36888).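 Also: FLT3 was tested as one member of a kinome-wide kinase panel.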
The target of assay [2] is Cyclin-dependent kinase 19 (Homo sapiens, UniProt Q9BWU1). Kind of assay: Navigating the Kinome. Panel member name: CDC2L6.
The target in assay [3] is Dual specificity tyrosine-phosphorylation-regulated kinase 1B (Homo sapiens, UniProt Q9Y463). Kind of assay: Navigating the Kinome. Panel member name: DYRK1B.
The target in assay [4] is Fibroblast growth factor receptor 1 (Homo sapiens, UniProt P11362).
Assay [5] addresses ALK tyrosine kinase receptor (Homo sapiens, UniProt Q9UM73).
Assay [6] addresses Glycogen synthase kinase-3 beta (Homo sapiens, UniProt P49841).
The target of assay [7] is Mitogen-activated protein kinase 8 (Homo sapiens, UniProt P45983).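 Also: value comes from one member of a kinome-wide kinase profiling panel.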
Assay [8] has as its target Hepatocyte growth factor receptor (Homo sapiens, UniProt P08581).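 Also: kinase panel profiling across the kinome, with MET as the panel member.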
The target in assay [9] is High affinity nerve growth factor receptor (Homo sapiens, UniProt P04629).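 Also: NTRK1 tested as one member of a kinome-wide profiling panel.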
Assay [10] deals with Serine/threonine-protein kinase pim-1 (Homo sapiens, UniProt P11309).
Assay [11] concerns the target cAMP-dependent protein kinase catalytic subunit alpha (Homo sapiens, UniProt P17612).
Assay [12] concerns the target Cell division cycle 7-related protein kinase (Homo sapiens, UniProt O00311).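 Also: value obtained from a kinome-wide kinase panel.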
In assay [13] the target is Homeodomain-interacting protein kinase 2 (Homo sapiens, UniProt Q9H2X6).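 Also: measured within a kinome-wide kinase profiling panel, HIPK2 being one panel member.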
The target of assay [14] is Mitogen-activated protein kinase kinase kinase kinase 4 (Homo sapiens, UniProt O95819).
Assay [15] addresses Dual specificity protein kinase CLK4 (Homo sapiens, UniProt Q9HAZ1).
Assay [16] concerns the target Interleukin-1 receptor-associated kinase 4 (Homo sapiens, UniProt Q9NWZ3).

The term Ki denotes a measure of affinity in units of concentration, obtained from inhibition or displacement.

The structures appear in SMILES notation. Calls of active or inactive are those of the source.

Sequence of Glycogen synthase kinase-3 beta (P49841 whole entry): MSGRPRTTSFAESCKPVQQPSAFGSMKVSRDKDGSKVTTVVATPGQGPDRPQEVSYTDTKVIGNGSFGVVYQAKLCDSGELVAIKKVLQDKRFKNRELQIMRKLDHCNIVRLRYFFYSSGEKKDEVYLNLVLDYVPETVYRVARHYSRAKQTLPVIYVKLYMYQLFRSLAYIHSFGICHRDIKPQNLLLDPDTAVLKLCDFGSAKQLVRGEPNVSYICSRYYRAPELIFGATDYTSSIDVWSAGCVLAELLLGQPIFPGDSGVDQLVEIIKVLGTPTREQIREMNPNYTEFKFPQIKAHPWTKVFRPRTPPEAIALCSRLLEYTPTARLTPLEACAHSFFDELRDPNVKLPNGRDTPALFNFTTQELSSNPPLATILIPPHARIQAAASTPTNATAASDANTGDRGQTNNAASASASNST
Sequence of Serine/threonine-protein kinase pim-1 (P11309 whole entry): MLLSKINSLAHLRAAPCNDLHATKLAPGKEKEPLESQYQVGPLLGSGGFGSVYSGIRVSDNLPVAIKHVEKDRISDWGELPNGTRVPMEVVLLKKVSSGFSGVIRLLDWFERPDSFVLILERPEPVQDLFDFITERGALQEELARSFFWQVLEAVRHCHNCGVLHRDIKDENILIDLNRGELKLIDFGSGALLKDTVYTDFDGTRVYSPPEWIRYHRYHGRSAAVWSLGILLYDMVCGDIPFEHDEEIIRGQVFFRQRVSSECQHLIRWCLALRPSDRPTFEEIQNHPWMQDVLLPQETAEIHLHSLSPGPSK
Sequence of Hepatocyte growth factor receptor (P08581 whole entry): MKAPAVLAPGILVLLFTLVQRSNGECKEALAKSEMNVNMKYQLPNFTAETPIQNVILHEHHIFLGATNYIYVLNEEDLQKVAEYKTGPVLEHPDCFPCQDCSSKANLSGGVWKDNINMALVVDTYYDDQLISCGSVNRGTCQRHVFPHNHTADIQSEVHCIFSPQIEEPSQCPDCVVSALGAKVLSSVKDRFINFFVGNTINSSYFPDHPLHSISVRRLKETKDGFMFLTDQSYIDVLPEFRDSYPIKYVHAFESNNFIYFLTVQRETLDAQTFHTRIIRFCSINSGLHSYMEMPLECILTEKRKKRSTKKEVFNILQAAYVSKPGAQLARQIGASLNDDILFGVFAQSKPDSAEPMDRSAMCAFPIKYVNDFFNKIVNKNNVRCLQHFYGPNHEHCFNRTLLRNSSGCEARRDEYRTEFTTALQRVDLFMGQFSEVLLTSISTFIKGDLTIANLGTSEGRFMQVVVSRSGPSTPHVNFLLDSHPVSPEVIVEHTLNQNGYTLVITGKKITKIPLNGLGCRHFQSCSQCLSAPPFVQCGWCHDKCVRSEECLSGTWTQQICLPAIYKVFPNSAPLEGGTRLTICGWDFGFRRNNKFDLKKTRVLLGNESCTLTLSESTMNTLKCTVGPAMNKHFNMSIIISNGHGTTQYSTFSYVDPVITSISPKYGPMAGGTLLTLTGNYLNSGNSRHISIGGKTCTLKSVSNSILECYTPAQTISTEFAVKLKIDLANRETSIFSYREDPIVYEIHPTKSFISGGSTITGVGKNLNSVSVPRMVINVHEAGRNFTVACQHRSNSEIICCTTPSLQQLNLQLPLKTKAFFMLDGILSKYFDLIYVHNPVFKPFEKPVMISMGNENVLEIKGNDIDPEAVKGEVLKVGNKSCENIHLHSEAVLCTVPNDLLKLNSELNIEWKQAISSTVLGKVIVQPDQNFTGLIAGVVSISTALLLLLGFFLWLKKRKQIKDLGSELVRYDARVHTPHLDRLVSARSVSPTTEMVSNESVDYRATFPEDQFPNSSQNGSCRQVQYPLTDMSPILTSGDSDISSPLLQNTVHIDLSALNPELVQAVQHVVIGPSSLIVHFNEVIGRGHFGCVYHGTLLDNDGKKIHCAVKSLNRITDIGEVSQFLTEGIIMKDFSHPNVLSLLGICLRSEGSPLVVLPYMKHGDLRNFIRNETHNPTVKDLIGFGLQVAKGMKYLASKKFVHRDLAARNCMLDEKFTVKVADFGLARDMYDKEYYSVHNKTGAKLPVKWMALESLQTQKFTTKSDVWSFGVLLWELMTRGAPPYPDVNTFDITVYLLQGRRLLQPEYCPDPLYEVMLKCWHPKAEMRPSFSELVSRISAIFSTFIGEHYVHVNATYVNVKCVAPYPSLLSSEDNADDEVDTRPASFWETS
Sequence of Cell division cycle 7-related protein kinase (O00311 whole entry): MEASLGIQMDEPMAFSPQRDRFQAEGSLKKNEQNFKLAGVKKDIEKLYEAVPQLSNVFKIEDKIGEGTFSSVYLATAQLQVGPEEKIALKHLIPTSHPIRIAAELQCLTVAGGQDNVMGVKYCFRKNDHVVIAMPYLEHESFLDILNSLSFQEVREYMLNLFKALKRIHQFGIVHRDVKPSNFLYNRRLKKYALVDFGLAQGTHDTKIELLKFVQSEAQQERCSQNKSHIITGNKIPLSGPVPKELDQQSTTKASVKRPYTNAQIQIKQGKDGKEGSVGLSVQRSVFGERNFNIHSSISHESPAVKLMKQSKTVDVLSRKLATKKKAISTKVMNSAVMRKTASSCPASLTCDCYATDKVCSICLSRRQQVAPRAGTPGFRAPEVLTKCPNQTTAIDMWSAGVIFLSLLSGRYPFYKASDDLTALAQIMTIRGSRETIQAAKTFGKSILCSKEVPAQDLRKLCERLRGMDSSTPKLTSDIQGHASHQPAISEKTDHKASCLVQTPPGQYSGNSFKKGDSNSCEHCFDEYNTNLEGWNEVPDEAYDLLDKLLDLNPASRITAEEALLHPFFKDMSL
Sequence of High affinity nerve growth factor receptor (P04629 whole entry): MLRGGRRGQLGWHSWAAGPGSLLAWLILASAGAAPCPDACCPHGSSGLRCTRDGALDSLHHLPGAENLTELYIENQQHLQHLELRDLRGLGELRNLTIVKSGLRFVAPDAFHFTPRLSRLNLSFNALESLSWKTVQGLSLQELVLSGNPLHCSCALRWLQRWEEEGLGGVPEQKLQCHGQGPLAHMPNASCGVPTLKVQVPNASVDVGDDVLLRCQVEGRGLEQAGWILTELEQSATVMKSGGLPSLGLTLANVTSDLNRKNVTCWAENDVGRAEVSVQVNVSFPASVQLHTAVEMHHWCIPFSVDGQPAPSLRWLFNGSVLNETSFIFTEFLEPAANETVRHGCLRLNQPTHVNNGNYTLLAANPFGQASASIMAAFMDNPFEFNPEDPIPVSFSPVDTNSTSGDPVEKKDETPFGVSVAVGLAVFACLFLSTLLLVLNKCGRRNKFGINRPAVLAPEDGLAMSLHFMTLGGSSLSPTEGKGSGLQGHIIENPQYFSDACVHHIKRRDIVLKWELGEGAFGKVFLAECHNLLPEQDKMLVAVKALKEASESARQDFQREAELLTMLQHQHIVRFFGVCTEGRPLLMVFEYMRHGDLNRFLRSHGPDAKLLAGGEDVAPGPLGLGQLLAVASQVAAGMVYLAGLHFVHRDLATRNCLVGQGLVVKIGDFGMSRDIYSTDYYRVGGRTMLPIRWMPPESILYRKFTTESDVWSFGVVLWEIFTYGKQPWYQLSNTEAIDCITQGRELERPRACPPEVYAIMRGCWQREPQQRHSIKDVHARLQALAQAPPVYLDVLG
Sequence of Dual specificity protein kinase CLK4 (Q9HAZ1 whole entry): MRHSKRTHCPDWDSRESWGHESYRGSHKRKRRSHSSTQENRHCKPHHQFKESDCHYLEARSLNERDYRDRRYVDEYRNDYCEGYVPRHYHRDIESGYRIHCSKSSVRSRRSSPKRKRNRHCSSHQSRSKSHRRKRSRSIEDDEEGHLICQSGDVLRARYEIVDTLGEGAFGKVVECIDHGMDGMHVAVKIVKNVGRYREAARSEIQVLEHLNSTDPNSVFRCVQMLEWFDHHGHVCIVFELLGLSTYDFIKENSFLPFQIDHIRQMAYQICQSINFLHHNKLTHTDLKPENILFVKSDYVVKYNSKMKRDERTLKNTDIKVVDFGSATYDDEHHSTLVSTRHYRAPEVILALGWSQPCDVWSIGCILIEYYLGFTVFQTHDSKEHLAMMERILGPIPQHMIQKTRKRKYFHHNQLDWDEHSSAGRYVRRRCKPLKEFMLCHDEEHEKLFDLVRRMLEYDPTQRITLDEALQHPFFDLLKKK
Sequence of Cyclin-dependent kinase 19 (Q9BWU1 whole entry): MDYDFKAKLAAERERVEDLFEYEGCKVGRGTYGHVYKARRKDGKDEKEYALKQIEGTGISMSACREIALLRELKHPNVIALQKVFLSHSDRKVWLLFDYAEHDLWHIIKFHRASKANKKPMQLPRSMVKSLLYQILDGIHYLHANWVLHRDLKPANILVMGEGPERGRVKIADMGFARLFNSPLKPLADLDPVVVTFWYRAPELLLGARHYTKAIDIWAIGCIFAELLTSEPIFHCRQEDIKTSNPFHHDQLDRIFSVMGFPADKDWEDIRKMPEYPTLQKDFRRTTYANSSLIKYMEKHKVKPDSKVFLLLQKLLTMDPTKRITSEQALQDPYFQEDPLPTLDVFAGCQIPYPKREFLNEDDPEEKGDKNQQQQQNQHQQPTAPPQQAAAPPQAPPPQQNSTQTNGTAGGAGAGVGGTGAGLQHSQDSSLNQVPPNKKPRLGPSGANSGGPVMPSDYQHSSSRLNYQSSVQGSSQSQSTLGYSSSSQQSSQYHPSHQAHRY
Sequence of Mitogen-activated protein kinase 8 (P45983 whole entry): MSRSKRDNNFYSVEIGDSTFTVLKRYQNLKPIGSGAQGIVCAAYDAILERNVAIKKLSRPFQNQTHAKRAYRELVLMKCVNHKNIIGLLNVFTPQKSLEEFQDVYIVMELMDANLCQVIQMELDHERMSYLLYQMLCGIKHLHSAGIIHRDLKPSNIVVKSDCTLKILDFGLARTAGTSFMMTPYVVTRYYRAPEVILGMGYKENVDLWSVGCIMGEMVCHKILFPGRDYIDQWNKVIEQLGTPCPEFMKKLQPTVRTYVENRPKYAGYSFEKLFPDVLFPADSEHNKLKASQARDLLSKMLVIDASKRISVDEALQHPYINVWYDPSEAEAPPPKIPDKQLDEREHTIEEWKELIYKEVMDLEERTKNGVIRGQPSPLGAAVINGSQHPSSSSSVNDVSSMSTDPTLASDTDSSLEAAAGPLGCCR

Regarding `CS(=O)(=O)c1cccc(-c2cnn3c(C(N)=O)cc(-c4ccccc4)nc23)c1`, the Ki in assay [1] is 2510 nM (active); in [2], > 100000 nM (inactive); in assay [3], 2000 nM (active); in assay [4], 2000 nM (active); in [5], 5010 nM (active); in [6], 1260 nM (active). In addition, the Ki in assay [7] is 3980 nM (active); in assay [8], 2510 nM (active); in [9], 2000 nM (active); in [10], 3980 nM (active).
For `CCCCNc1cc(-c2ccncc2)cc2[nH]nc(N)c12`, the Ki in [11] was 398 nM (active); in assay [12], 12.6 nM (active); in assay [13] it was 398 nM (active); in [14] it was 316 nM (active); in [15] it was 3.16 nM (active); in [16], 79.4 nM (active). In addition, the Ki in [6] is 398 nM (active); in assay [10], 2510 nM (active).
